Measurements reported in US6689773B2, “Uracil substituted phenyl sulfamoyl carboxamides” (BASF Aktiengesellschaft, priority 2000, dated 2004).

Assays:
Format in all cases: in vivo
[1] = system: CHEAL, Lambsquarters, Chenopodium album, L. Common; experiment: Postemergence herbicidal evaluation (Example 147); conditions: rating scale 0-9, two to three weeks after treatment
Method in brief: (§1)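 ~2-wk seedlings; spray 40 psi; 0.016–0.032 kg/ha a.i. in acetone/water 80/20 + 1.0% methylated seed oil; greenhouse; rated 0–9 visually at 2–3 wk; multiple tests averaged.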

[2] = system: ZEAMX, Field corn, Zea mays L.; experiment: Postemergence herbicidal evaluation (Example 147); conditions: rating scale 0-9, two to three weeks after treatment
Method in brief: as §1

[3] = system: XANST, Cocklebur, Xanthium strumariam; experiment: Postemergence herbicidal evaluation (Example 147); conditions: rating scale 0-9, two to three weeks after treatment
Method in brief: as §1

[4] = system: TRZAW, Winter wheat, Tritium Aestivum, L. (Winter); experiment: Postemergence herbicidal evaluation (Example 147); conditions: rating scale 0-9, two to three weeks after treatment
Method in brief: as §1

[5] = system: SETVI, Green foxtail, Setaria viridis, (L.)Beau; experiment: Postemergence herbicidal evaluation (Example 147); conditions: rating scale 0-9, two to three weeks after treatment
Method in brief: as §1

[6] = system: DIGSA, Crabgrass, (Hairy) L, Digitaria sanguinalis, (L)Scop; experiment: Postemergence herbicidal evaluation (Example 147); conditions: rating scale 0-9, two to three weeks after treatment
Method in brief: as §1

[7] = system: GLXMA, Soybean, Glycine max, (L.) Merr.; experiment: Postemergence herbicidal evaluation (Example 147); conditions: rating scale 0-9, two to three weeks after treatment
Method in brief: as §1

[8] = system: AMBEL, Ragweed, Common, Ambrosia artemiisifolia, L.; experiment: Postemergence herbicidal evaluation (Example 147); conditions: rating scale 0-9, two to three weeks after treatment
Method in brief: as §1

[9] = system: ALOMY, Blackgrass, Alopecurus myosuroides; experiment: Postemergence herbicidal evaluation (Example 147); conditions: rating scale 0-9, two to three weeks after treatment
Method in brief: as §1

[10] = system: ECHCG, Barnyardgrass, Echinochloa crusgalli, (L.)Beau; experiment: Postemergence herbicidal evaluation (Example 147); conditions: rating scale 0-9, two to three weeks after treatment
Method in brief: as §1

[11] = system: ABUTH, Velvetleaf, Abutilon theophrasti, Medic.; experiment: Postemergence herbicidal evaluation (Example 147); conditions: rating scale 0-9, two to three weeks after treatment
Method in brief: as §1

[12] = system: IPOHE, Morningglory, Ivyleaf, Ipomoea hederacea, (L)Jacq.; experiment: Postemergence herbicidal evaluation (Example 147); conditions: rating scale 0-9, two to three weeks after treatment
Method in brief: as §1

[13] = system: CHEAL, Lambsquarters, Chenopodium album, L. Common; experiment: Preemergence herbicidal evaluation (Example 148); conditions: rating scale 0-9, two to four weeks after treatment
Method in brief: (§2)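 Sow seed–soil mix onto ~1 in soil; spray aqueous acetone compound solution (~0.125–0.250 kg/ha equivalent); keep on greenhouse benches under standard watering; score injury visually after 2–4 weeks.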

[14] = system: ZEAMX, Field corn, Zea mays L.; experiment: Preemergence herbicidal evaluation (Example 148); conditions: rating scale 0-9, two to four weeks after treatment
Method in brief: as §2

[15] = system: XANST, Cocklebur, Xanthium strumariam; experiment: Preemergence herbicidal evaluation (Example 148); conditions: rating scale 0-9, two to four weeks after treatment
Method in brief: as §2

[16] = system: TRZAW, Winter wheat, Tritium Aestivum, L. (Winter); experiment: Preemergence herbicidal evaluation (Example 148); conditions: rating scale 0-9, two to four weeks after treatment
Method in brief: as §2

[17] = system: SETVI, Green foxtail, Setaria viridis, (L.)Beau; experiment: Preemergence herbicidal evaluation (Example 148); conditions: rating scale 0-9, two to four weeks after treatment
Method in brief: as §2

[18] = system: DIGSA, Crabgrass, (Hairy) L, Digitaria sanguinalis, (L)Scop; experiment: Preemergence herbicidal evaluation (Example 148); conditions: rating scale 0-9, two to four weeks after treatment
Method in brief: as §2

[19] = system: GLXMA, Soybean, Glycine max, (L.) Merr.; experiment: Preemergence herbicidal evaluation (Example 148); conditions: rating scale 0-9, two to four weeks after treatment
Method in brief: as §2

[20] = system: AMBEL, Ragweed, Common, Ambrosia artemiisifolia, L.; experiment: Preemergence herbicidal evaluation (Example 148); conditions: rating scale 0-9, two to four weeks after treatment
Method in brief: as §2

[21] = system: ALOMY, Blackgrass, Alopecurus myosuroides; experiment: Preemergence herbicidal evaluation (Example 148); conditions: rating scale 0-9, two to four weeks after treatment
Method in brief: as §2

[22] = system: ECHCG, Barnyardgrass, Echinochloa crusgalli, (L.)Beau; experiment: Preemergence herbicidal evaluation (Example 148); conditions: rating scale 0-9, two to four weeks after treatment
Method in brief: as §2

[23] = system: ABUTH, Velvetleaf, Abutilon theophrasti, Medic.; experiment: Preemergence herbicidal evaluation (Example 148); conditions: rating scale 0-9, two to four weeks after treatment
Method in brief: as §2

[24] = system: IPOHE, Morningglory, Ivyleaf, Ipomoea hederacea, (L)Jacq.; experiment: Preemergence herbicidal evaluation (Example 148); conditions: rating scale 0-9, two to four weeks after treatment
Method in brief: as §2

Question: Which “Postemergence herbicidal rating CHEAL” value ([1]; rate 0.016 kg/ha) does the source give for `COc1ccc(CNS(=O)(=O)NC(=O)c2cc(-n3c(=O)cc(C(F)(F)F)n(C)c3=O)c(F)cc2Cl)cc1` [Example 82] here?
Answer: 9.0

Question: And the “Postemergence herbicidal rating CHEAL” value ([1]; rate 0.032 kg/ha)?
Answer: 9.0

Question: What about the “Postemergence herbicidal rating ZEAMX” value ([2]; rate 0.016 kg/ha) of the same molecule?
Answer: 6.5

Question: What about the “Postemergence herbicidal rating ZEAMX” value ([2]; rate 0.032 kg/ha) of the same molecule?
Answer: 6.5

Question: And the “Postemergence herbicidal rating XANST” value ([3]; rate 0.016 kg/ha)?
Answer: 9.0

Question: What about the “Postemergence herbicidal rating XANST” value ([3]; rate 0.032 kg/ha) of the same molecule?
Answer: 9.0

Question: And the “Postemergence herbicidal rating TRZAW” value ([4]; rate 0.016 kg/ha)?
Answer: 5.5

Question: What about the “Postemergence herbicidal rating TRZAW” value ([4]; rate 0.032 kg/ha) of the same molecule?
Answer: 6.0

Question: What about the “Postemergence herbicidal rating SETVI” value ([5]; rate 0.016 kg/ha) of the same molecule?
Answer: 6.0

Question: And the “Postemergence herbicidal rating SETVI” value ([5]; rate 0.032 kg/ha)?
Answer: 7.0

Question: What about the “Postemergence herbicidal rating DIGSA” value ([6]; rate 0.016 kg/ha) of the same molecule?
Answer: 3.0

Question: What about the “Postemergence herbicidal rating DIGSA” value ([6]; rate 0.032 kg/ha) of the same molecule?
Answer: 3.0

Question: What about the “Postemergence herbicidal rating GLXMA” value ([7]; rate 0.016 kg/ha) of the same molecule?
Answer: 8.0

Question: And the “Postemergence herbicidal rating GLXMA” value ([7]; rate 0.032 kg/ha)?
Answer: 8.5

Question: What about the “Postemergence herbicidal rating AMBEL” value ([8]; rate 0.016 kg/ha) of the same molecule?
Answer: 9.0

Question: And the “Postemergence herbicidal rating AMBEL” value ([8]; rate 0.032 kg/ha)?
Answer: 9.0

Question: And the “Postemergence herbicidal rating ALMOY” value ([9]; rate 0.016 kg/ha)?
Answer: 1.0

Question: And the “Postemergence herbicidal rating ALMOY” value ([9]; rate 0.032 kg/ha)?
Answer: 2.0

Question: What about the “Postemergence herbicidal rating ECHCG” value ([10]; rate 0.016 kg/ha) of the same molecule?
Answer: 7.0

Question: And the “Postemergence herbicidal rating ECHCG” value ([10]; rate 0.032 kg/ha)?
Answer: 8.0

Question: What about the “Postemergence herbicidal rating ABUTH” value ([11]; rate 0.016 kg/ha) of the same molecule?
Answer: 9.0

Question: And the “Postemergence herbicidal rating ABUTH” value ([11]; rate 0.032 kg/ha)?
Answer: 9.0

Question: What about the “Postemergence herbicidal rating IPOHE” value ([12]; rate 0.016 kg/ha) of the same molecule?
Answer: 9.0

Question: What about the “Postemergence herbicidal rating IPOHE” value ([12]; rate 0.032 kg/ha) of the same molecule?
Answer: 9.0

Question: What about the “Preemergence herbicidal rating CHEAL” value ([13]; rate 0.125 kg/ha) of the same molecule?
Answer: 9.0

Question: And the “Preemergence herbicidal rating CHEAL” value ([13]; rate 0.25 kg/ha)?
Answer: 9.0

Question: And the “Preemergence herbicidal rating ZEAMX” value ([14]; rate 0.125 kg/ha)?
Answer: 0.0

Question: What about the “Preemergence herbicidal rating ZEAMX” value ([14]; rate 0.25 kg/ha) of the same molecule?
Answer: 2.0

Question: What about the “Preemergence herbicidal rating XANST” value ([15]; rate 0.125 kg/ha) of the same molecule?
Answer: 9.0

Question: What about the “Preemergence herbicidal rating XANST” value ([15]; rate 0.25 kg/ha) of the same molecule?
Answer: 9.0

Question: What about the “Preemergence herbicidal rating TRZAW” value ([16]; rate 0.125 kg/ha) of the same molecule?
Answer: 0.0

Question: What about the “Preemergence herbicidal rating TRZAW” value ([16]; rate 0.25 kg/ha) of the same molecule?
Answer: 1.0

Question: What about the “Preemergence herbicidal rating SETVI” value ([17]; rate 0.125 kg/ha) of the same molecule?
Answer: 3.0

Question: What about the “Preemergence herbicidal rating SETVI” value ([17]; rate 0.25 kg/ha) of the same molecule?
Answer: 7.0

Question: What about the “Preemergence herbicidal rating DIGSA” value ([18]; rate 0.125 kg/ha) of the same molecule?
Answer: 4.0

Question: And the “Preemergence herbicidal rating DIGSA” value ([18]; rate 0.25 kg/ha)?
Answer: 4.0

Question: What about the “Preemergence herbicidal rating GLXMA” value ([19]; rate 0.125 kg/ha) of the same molecule?
Answer: 9.0

Question: What about the “Preemergence herbicidal rating GLXMA” value ([19]; rate 0.25 kg/ha) of the same molecule?
Answer: 9.0

Question: And the “Preemergence herbicidal rating AMBEL” value ([20]; rate 0.125 kg/ha)?
Answer: 9.0

Question: What about the “Preemergence herbicidal rating AMBEL” value ([20]; rate 0.25 kg/ha) of the same molecule?
Answer: 9.0

Question: What about the “Preemergence herbicidal rating ALMOY” value ([21]; rate 0.125 kg/ha) of the same molecule?
Answer: 0.0

Question: What about the “Preemergence herbicidal rating ALMOY” value ([21]; rate 0.25 kg/ha) of the same molecule?
Answer: 0.0

Question: And the “Preemergence herbicidal rating ECHCG” value ([22]; rate 0.125 kg/ha)?
Answer: 3.0

Question: And the “Preemergence herbicidal rating ECHCG” value ([22]; rate 0.25 kg/ha)?
Answer: 4.0

Question: And the “Preemergence herbicidal rating ABUTH” value ([23]; rate 0.125 kg/ha)?
Answer: 9.0

Question: What about the “Preemergence herbicidal rating ABUTH” value ([23]; rate 0.25 kg/ha) of the same molecule?
Answer: 9.0

Question: And the “Preemergence herbicidal rating IPOHE” value ([24]; rate 0.125 kg/ha)?
Answer: 9.0

Question: What about the “Preemergence herbicidal rating IPOHE” value ([24]; rate 0.25 kg/ha) of the same molecule?
Answer: 9.0
